Results: patent publication US9925240B2, “Methods of treating and preventing cancer drug resistance” (Genentech, Inc., priority 2013, dated 2018)

Assays:
HCC4006-ER cells = assay: Cell viability assay (CellTiter-Glo) in erlotinib-resistant HCC4006-ER cells; type: cell-based; conditions: for Ability to overcome resistance to erlotinib (cell viability, FIG. 3 and FIG. 5): 72 h, in combination with erlotinib
Method: 10^3 cells were plated in each well of 384-well plate. 24 hours after plating, added indicated concentration drug to each well. 72 hours after dosing, added CellTiter-Glo Reagent (CellTiter Glo Luminescent Cell Viability Assay, Promega) to each well, incubate the plate at room temperature for 10 minutes, record luminescence by EnVision 2101 Multilabel Reader (PerkinElmer).
Drug-sensitive cells (HCC4006 and HCC827) were treated with 2 uM erlotinib for 2 months. Fresh media containing 2 uM erlotinib were replaced every 3 to 4 days. Viable cells were collected as erlotinib-resistant cells.

HCC4006 cells = assay: Clonogenic assay (crystal violet) in HCC4006 cells; type: cell-based; conditions: erlotinib 1 μM plus PD173074 0.5 μM, continuous treatment, stained at 6 weeks
Method: 10^5 cells were plated in 10 cm^2 plate. 24 hours after plating, media was removed and replaced with media containing indicated drugs. Fresh media was replaced every 3 to 4 days until cells reached confluence (4 weeks) or 6 weeks to stop culture. Media was removed, cells were washed with PBS, then stained with 0.5% crystal violet for 20 minutes at room temperature. Dye was removed, cell monolayers were washed with water, dry the plate and take a picture as record.

Row | Structure (SMILES) | Ability to overcome resistance to erlotinib (cell viability, FIG. 3 and FIG. 5) (HCC4006-ER cells; HCC4006-ER cells) | Screen of small molecule inhibitors in the presence or absence of erlotinib (growth inhibition, FIG. 8) (HCC4006-ER cells; HCC4006-ER cells, with or without erlotinib) | Development of resistance to erlotinib (FIG. 6) (HCC4006 cells) | Sensitivity of cells to erlotinib (cell viability, annexin V, FIG. 1A-C) (HCC4006-ER cells; HCC4006-ER vs parental HCC4006, 72 h)
1 | CCN(CC)CCCCNc1ncc2cc(-c3cc(OC)cc(OC)c3)c(NC(=O)NC(C)(C)C)nc2n1 [PD173074, N-[2-[[4-(diethylamino)butyl]amino]-6-(3,5-dimethoxyphenyl)pyrido[2,3-d]pyrimidin-7-yl]-N′-(1,1-dimethylethyl)-urea] | overcame resistance to erlotinib | could reverse resistance to erlotinib | can suppress the development of resistance to erlotinib | –
2 | Nc1nc(Nc2ccc3c(c2)CCC(N2CCCC2)CC3)nn1-c1cc2c(nn1)-c1ccccc1CCC2 (centres unmarked) [R428] | cannot overcome resistance to erlotinib | – | – | –
3 | C#Cc1cccc(Nc2ncnc3cc(OCCOC)c(OCCOC)cc23)c1 [erlotinib, N-(3-ethynylphenyl)-6,7-bis(2-methoxyethoxy)-4-quinazolinamine] | – | – | – | resistant
